Measured values: patent publication US20150071941A1, “TREATMENT OF ISCHEMIC RETINOPATHIES” (THE JOHNS HOPKINS UNIVERSITY, priority 2012, published 2015)
Entries after “also recorded” stand apart in the source; their conditions may differ.

How the values were obtained:
[1] = system: human dermal microvascular endothelial cells (HMVECs); assay: In vitro endothelial cell permeability assay (passage of FITC-dextran through HMVEC monolayer); assay type: cell-based
Method: Permeability Assays. In vitro permeability assay was performed as previously described (48). Briefly, HMVEC were seeded on collagen-coated transwells ([…], PTFE; Corning), and allowed to grow as a 3-d-old mature monolayer. Following overnight starvation, 500 μL and 100 μL of conditioned medium were added for 30 min (37° C.) to the bottom and top chamber, respectively. A total of 100 μL of 1 mg/mL FITC dextran (molecular weight=40,000; Invitrogen) was added for 30 min. Fluorescence was quantified using a SpectraMax M5 Microplate Reader (Molecular Devices) with excitation at 494 nm and emission at 521 nm.

[2] = system: inner retina vessels; assay: OIR mouse model: vascular permeability / retinal edema (inner retinal cysts, extravascular albumin); assay type: in vivo; settings: P13 OIR mice, digoxin 2 mg/kg daily intraperitoneal
Method: (§1) Oxygen-Induced Retinopathy (OIR). […] At P12 the mice were returned to room air.
(§2) Quantitation of vascular permeability in the retina was assessed by examining 4 high powered fields of the posterior retina from three animals and counting the number of CD31-labled inner retina vessels in the posterior retina that had visible adjacent extravascular albumin (detected by immunofluorescence) as a percent of the total vessels in each field.
(§3) Immunohistochemistry and Immunofluorescence. Immunohistochemical detection of extravascular albumin (Cedarlane-Nordic) was performed on cryopreserved mouse tissue sections using a nitroblue tetrazolium (NBT) development system using Streptavidin alkaline phosphatase (APase) as previously described (53) Immunohistochemical detection of HIF-1 alpha (Abcam), human and murine ANGPTL4 (Abcam and Lifespan BioSciences, respectively), VEGF (Santa Cuz), CD34 (Covance), and GFAP (Sigma) were performed in paraffin embedded human tissue (obtained from the Wilmer Eye Institute Ocular Pathology Archives with approval from the Johns Hopkins School of Medicine Internal Review Board) and mice cryopreserved tissue using ABC system (Dako) as previously described (4).

[3] = system: GFAP; assay: OIR mouse model: GFAP expression in Müller cells; assay type: in vivo; settings: OIR mice, administration of digoxin
Source text: as §1

[4] = system: Angptl4; assay: OIR mouse model: RT-PCR of Angptl4 mRNA in neurosensory retina; assay type: in vivo; settings: OIR mice P12-P14, daily intraperitoneal digoxin
Method: as §1
(§4) Quantitative Real-Time RT-PCR. RNA was isolated from culture cells or retinas with RNeasy Mini Kit (Qiagen) and cDNA prepared using MuLV Reverse Transcriptase (Applied Biosystems, Carlsbad, Calif.). Quantitative real-time PCR was performed with Power SYBR Green PCR Master Mix (Applied Biosystems) and MyiQ Real-Time PCR Detection System (Bio Rad). Normalization was done using cyclophilin A for mouse tissue and cell lines and β-actin for human cell lines. Primers for qPCR include: human VEGF, forward—[…] (SEQ ID NO:1) and reverse—[…] (SEQ ID NO:2); human ANGPTL4, forward—[…] (SEQ ID NO:3) and reverse—[…] (SEQ ID NO:4); human β-actin, forward—[…] (SEQ ID NO:5) and reverse—[…](SEQ ID NO:6); mouse VEGF, forward—[…] (SEQ ID NO:7) and reverse—[…](SEQ ID NO:8); mouse ANGPTL4, forward—[…] (SEQ ID NO:9) and reverse—[…] (SEQ ID NO:10); mouse cyclophilin A, forward—[…] (SEQ ID NO:11) and reverse—[…] (SEQ ID NO:12).

[5] = system: Vegf; assay: OIR mouse model: RT-PCR of Vegf mRNA in neurosensory retina; assay type: in vivo; settings: OIR mice P12-P14, daily intraperitoneal digoxin
Method: as §1, §4

[6] = system: VEGF; assay: MIO-M1 Müller cells: VEGF mRNA (RT-PCR) and secreted protein (ELISA); assay type: cell-based, human; settings: digoxin 100 nM, 2 hours prior to hypoxia; 8 hours hypoxia
Method: (§5) Cell Culture and Reagents. MIO-M1 cells were a generous gift from Astrid Limb (University College London Institute of Ophthalmology). Isolation of primary Müller cells was performed as previously described (51). Primary human dermal microvascular endothelial cells (HMVEC) were obtained from Lonza and cultured according the manufacter's protocols. Recombinant ANGPTL4 and VEGF, and ANGPTL4 and VEGF ELISA kits were obtained from R&D Systems. The KDR inhibitor, SU1498, and rapamycin were obtained from Calbiochem. Digoxin was obtained from Sigma. Predesigned control (Scrambled) and ANGPTL4 and HIF-1β siRNA sequences were obtained from Qiagen. AdLacZ and AdCAS have been previously described (26).
(§6) Quantitative Real-Time RT-PCR. RNA was isolated from culture cells or retinas with RNeasy Mini Kit (Qiagen) and cDNA prepared using MuLV Reverse Transcriptase (Applied Biosystems, Carlsbad, Calif.). Quantitative real-time PCR was performed with Power SYBR Green PCR Master Mix (Applied Biosystems) and MyiQ Real-Time PCR Detection System (Bio Rad). Normalization was done using cyclophilin A for mouse tissue and cell lines and β-actin for human cell lines. Primers for qPCR include: human VEGF, forward—[…] (SEQ ID NO:1) and reverse—[…] (SEQ ID NO:2); human ANGPTL4, forward—[…] (SEQ ID NO:3) and reverse—[…] (SEQ ID NO:4); human β-actin, forward—[…] […]

[7] = system: ANGPTL4; assay: MIO-M1 Müller cells: ANGPTL4 mRNA (RT-PCR) and protein (Western blot/ELISA); assay type: cell-based, human; settings: digoxin pretreatment (100 ng as printed), 2 hours prior hypoxia
Method: as §5, §6

[8] = system: mouse ear vasculature; assay: Modified Miles assay, vascular permeability in the mouse ear; assay type: in vivo; settings: intradermal injection of ANGPTL4 0.2 μg vs PBS
Method: In vivo permeability was assessed using a modified Miles assay as previously described (48). Briefly, Evan Blue dye was injected into mouse tail veins (200 μL of 12 mg/ml solution in PBS). After 5 minutes, animals were anesthetized using Tribromoethanol. 20 ul 0.2 ug VEGF or 0.2 ug ANGPTL4 was injected intradermally into the right ear (PBS was injected into left ear as a control). After 8 minutes, photographs were taken. Levels of Evans blue dye was then extracted from mouse ear in 1 mL of formamide at 55° C. for 16 hours and dye content quantified at 610 nm using a spectrophotometer (48).

[9] = system: angiogenesis; assay: Promotion of angiogenesis / NV in vitro and in vivo (Example 9, cornea pocket assay)
Source text: Cell Culture: ARPE19, human ES derived RPE cells, primary murine RPE cells. Rat: Subretinal lipid hydroperoxide CNV Model. Assays used included Cornea pocket assay, Western Blot and RT-PCR, and Immunohistochemistry and Immunofluorescence. Patient Samples: ELISA analysis of ANGPTL4 levels in aqueous humor.

[10] = system: inner retina vessels; assay: Intravitreal injection of recombinant protein into the mouse eye: retinal vascular permeability; assay type: in vivo
Method: […]. Intraocular injections with 1 μl of rmVEGF or rmANGPTL4 (200 ng/ul) were performed with a nanofil syringe (World Precision Instruments) using a 36G beveled needle. Intraocular injections with 1 μl of AdLacZ or AdCAS (2×10^12 VP/mL) were performed with pulled-glass micropipettes and a Harvard pump microinjection apparatus as previously described (52).
as §2, §3

CC(C)c1cc(/C=C(\C#N)C(=O)NCCCc2ccccc2)cc(C(C)C)c1O [SU1498]
endothelial cell permeability promoted by 100 ng recombinant human VEGF ([1]; SU1498 5 μM pre-treatment of endothelial cells): completely blocked the induction of endothelial cell permeability; also recorded: abolishes the promotion of endothelial cell permeability by 100 ng of recombinant human VEGF
endothelial cell permeability promoted by conditioned media from hypoxic MIO-M1 cells ([1]; SU1498 5 μM pre-treatment of endothelial cells, 8 hours hypoxia): only a partial inhibition of endothelial cell permeability; also recorded: only partially blocks the promotion of endothelial cell permeability

C[C@H]1O[C@@H](O[C@H]2[C@@H](O)C[C@H](O[C@H]3[C@@H](O)C[C@H](O[C@H]4CC[C@@]5(C)[C@H](CC[C@@H]6[C@@H]5C[C@@H](O)[C@]5(C)[C@@H](C7=CC(=O)OC7)CC[C@]65O)C4)O[C@@H]3C)O[C@@H]2C)C[C@H](O)[C@@H]1O [digoxin]
vascular permeability (inner retinal cysts, extravasated albumin) [2]: decrease in vascular permeability; also recorded: inhibits the increase in inner retinal cysts and extravasated albumin
GFAP expression [3]: not affected
induction of Angptl4 mRNA [4]: completely abolished the induction of Angptl4
induction of Vegf mRNA [5]: only partially inhibited the induction of Vegf
VEGF mRNA expression and protein secretion [6]: inhibited VEGF mRNA expression and protein secretion; also recorded: inhibits
ANGPTL4 RNA and protein induced by hypoxia [7]: inhibited
endothelial cell permeability promoted by conditioned media from hypoxic MIO-M1 cells ([1]; MIO-M1 pre-treated with 100 nM digoxin 2 hours prior to 8 hour hypoxia): potently blocked the property of the conditioned media to promote an increase in endothelial cell permeability; also recorded: inhibits the promotion of endothelial cell permeability by hypoxic MIO-M1 cells

VEGF
endothelial cell permeability ([1]; VEGF 100 ng): promotes endothelial cell permeability

B1: ANGPTL4: Recombinant angiopoietin-like 4 protein obtained from R&D Systems (protein, UniProt Q9BY76 26-406, looked up)
Angiopoietin-related protein 4: GPVQSKSPRFASWDEMNVLAHGLLQLGQGLREHAERTRSQLSALERRLSACGSACQGTEGSTDLPLAPESRVDPEVLHSLQTQLKAQNSRIQQLFHKVAQQQRHLEKQHLRIQHLQSQFGLLDHKHLDHEVAKPARRKRLPEMAQPVDPAHNVSRLHRLPRDCQELFQVGERQSGLFEIQPQGSPPFLVNCKMTSDGGWTVIQRRHDGSVDFNRPWEAYKAGFGDPHGEFWLGLEKVHSITGDRNSRLAVQLRDWDGNAELLQFSVHLGGEDTAYSLQLTAPVAGQLGATTVPPSGLSVPFSTWDQDHDLRRDKNCAKSLSGGWWFGTCSHSNLNGQYFRSIPQQRQKLKKGIFWKTWRGRYYPLQATTMLIQPMAAEAAS
endothelial cell permeability ([1]; recombinant human ANGPTL4 2.5 or 5 μg): potently induced endothelial cell permeability
endothelial cell permeability ([1]; recombinant human ANGPTL4 2.5 or 5 μg, listed as recombinant human ANGPTL4): promotes endothelial cell permeability
vascular permeability (Evans blue dye, 610 nm) [8]: remarkable increase in vascular permeability; also recorded: marked increase in dye
promotion of angiogenesis [9]: promoted angiogenesis both in vitro and in vivo

B2: rmANGPTL4: recombinant murine ANGPTL4 injected intravitreally (protein, UniProt Q9Z1P8 24-410, looked up)
Angiopoietin-related protein 4: QGRPAQPEPPRFASWDEMNLLAHGLLQLGHGLREHVERTRGQLGALERRMAACGNACQGPKGKDAPFKDSEDRVPEGQTPETLQSLQTQLKAQNSKIQQLFQKVAQQQRYLSKQNLRIQNLQSQIDLLAPTHLDNGVDKTSRGKRLPKMTQLIGLTPNATHLHRPPRDCQELFQEGERHSGLFQIQPLGSPPFLVNCEMTSDGGWTVIQRRLNGSVDFNQSWEAYKDGFGDPQGEFWLGLEKMHSITGNRGSQLAVQLQDWDGNAKLLQFPIHLGGEDTAYSLQLTEPTANELGATNVSPNGLSLPFSTWDQDHDLRGDLNCAKSLSGGWWFGTCSHSNLNGQYFHSIPRQRQERKKGIFWKTWKGRYYPLQATTLLIQPMEATAAS
inner retinal cysts (H & E) ([10]; 200 ng rmANGPTL4 intravitreal vs PBS): increased inner retinal cysts
extravasation of albumin (immunohistochemistry) ([10]; 200 ng rmANGPTL4 intravitreal vs control): extravasation of albumin
vascular permeability (leakage of plasma and albumin) ([10]; rmANGPTL4 intravitreal, retinas after 48 hours): marked and statistically significant increase in vascular permeability
